Results published in patent US20260022116A1, “IMIDAZOPYRIDINE COMPOUNDS, PREPARATION THEREOF AND THERAPEUTIC USES THEREOF” (SANOFI, priority 2022, published 2026).
Counter-ions that a name gives are not always drawn. Like-named read-outs stand apart in the source and are kept apart here.

What was measured:
ERK5 [1] = target: T1, ERK5 (Homo sapiens, UniProt Q13164); assay: cell-based
Target sequence in this assay (Q13164 whole entry): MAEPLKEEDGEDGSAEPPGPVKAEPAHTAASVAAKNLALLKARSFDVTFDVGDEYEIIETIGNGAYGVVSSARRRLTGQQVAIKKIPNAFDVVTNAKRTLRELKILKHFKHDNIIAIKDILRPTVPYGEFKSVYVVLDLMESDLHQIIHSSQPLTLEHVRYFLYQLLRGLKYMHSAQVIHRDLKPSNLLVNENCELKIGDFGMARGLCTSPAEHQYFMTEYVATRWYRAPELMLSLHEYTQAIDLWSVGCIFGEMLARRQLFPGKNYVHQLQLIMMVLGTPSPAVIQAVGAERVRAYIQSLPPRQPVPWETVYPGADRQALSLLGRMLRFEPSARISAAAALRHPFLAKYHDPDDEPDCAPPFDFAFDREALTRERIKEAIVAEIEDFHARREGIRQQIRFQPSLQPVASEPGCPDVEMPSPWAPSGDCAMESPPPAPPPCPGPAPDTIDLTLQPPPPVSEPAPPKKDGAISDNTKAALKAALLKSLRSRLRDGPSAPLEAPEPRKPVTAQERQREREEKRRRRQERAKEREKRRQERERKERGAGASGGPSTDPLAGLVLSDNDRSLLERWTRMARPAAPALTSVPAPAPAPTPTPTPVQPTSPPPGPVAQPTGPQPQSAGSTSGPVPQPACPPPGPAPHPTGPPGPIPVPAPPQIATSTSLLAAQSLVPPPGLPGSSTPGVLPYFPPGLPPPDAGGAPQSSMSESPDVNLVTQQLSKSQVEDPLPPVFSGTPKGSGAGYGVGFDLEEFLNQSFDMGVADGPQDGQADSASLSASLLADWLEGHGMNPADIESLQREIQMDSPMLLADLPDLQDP
Method: (§1) Two assays were performed to assess the ERK5 inhibitory activity of compounds of the Examples, a cell-based assay and a cell-free biochemical assay.
(§2) The renal cancer cell line SN12C was transduced by a lentivirus pGreenFire1 MEF2 EF1 Neo (ref TR030VA-N) from SBI using standard infection protocol. pGreenFire1 MEF2 EF1 Neo allows the expression of luciferase gene under the control of minimal promoter with MEF2 transcriptional response elements. Cells harboring the reporter construct were selected by geneticin treatment. The selected cells were then transposed by a piggyback based plasmid pCM4007 allowing the expression of constitutively activated MEK5DD under control of TREG3 promoter, a doxycycline regulated promoter. Transposed cells were selected by puromycin treatment. Upon doxycycline treatment (1 μg/ml) MEK5DD was expressed. MEK5DD activates ERK5 that phosphorylates MEF2C protein. Activated MEF2C protein can bind to its transcriptional response elements. Then the luciferase is expressed. In a 96-well plate (96F nuncleon ref137101 thermofisher), 50,000 cells were inoculated in 142.5 μl of RPMI medium containing 10% fetal calf serum, 1% glutamine, and 1 μg/ml doxycycline. […] The luciferase activity was measured using the Kit Bright Glo Luminescent Cell Assay Cat E2610 (Promega) according to the manufacturer's protocol. Luminescence was determined using 0.2 second reading/well using a Tecan SPARK. IC50 values were calculated using XLFIT5 for Microsoft Excel using method 205.

ERK5 [2] = target: T1, ERK5; assay: biochemical
Target sequence in this assay (Q13164 55-347 limits assumed): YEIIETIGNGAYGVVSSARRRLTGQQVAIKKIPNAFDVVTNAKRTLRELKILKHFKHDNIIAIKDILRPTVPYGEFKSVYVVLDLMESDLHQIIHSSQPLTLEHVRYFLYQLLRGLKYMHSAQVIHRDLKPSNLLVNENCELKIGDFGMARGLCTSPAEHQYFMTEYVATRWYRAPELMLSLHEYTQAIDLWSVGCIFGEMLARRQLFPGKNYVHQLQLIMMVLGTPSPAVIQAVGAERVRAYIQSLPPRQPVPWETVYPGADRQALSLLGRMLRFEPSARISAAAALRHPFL
Method: as §1
An assay was performed to measure the capacity of each compound to inhibit ERK5 enzymatic activity. Compound potency was evaluated by Time-Resolved Forster Resonance Energy Transfer (FRET system). […] A mixture of 1 mM ATP and 1 μM biotinylated synthetic peptide was added (Biosyntan GmbH). This synthetic peptide represents amino acids 30-52 of Eukaryotic translation initiation factor 4E-binding protein 1 (see, e.g., the sequence under accession No. NP_004086.1) biotinylated at the N-terminus.

ERK5 [3] = target: T1, ERK5
Target sequence in this assay (Q13164 whole entry): as the sequence (Q13164 whole entry) above
Method: as §1, §2

IC50 (ERK5 [1])	IC50 (ERK5 [2])	SMILES	IC50 (ERK5 [3])
134 nM	140 nM	Nc1cc(OC(F)(F)F)ccc1C(=O)N1CCC(c2ccnc3[nH]c(CC4CCOC4)nc23)CC1 (single isomer, unassigned) [Example 2, [2-Amino-4-(trifluoromethoxy)phenyl]-[4-[2-(tetrahydrofuran-3-ylmethyl)-3H-imidazo[4,5-b]pyridin-7-yl]-1-piperidyl]methanone]	
150 nM	148 nM	CN1CCC(c2nc3c(C4CCN(C(=O)c5ccc(OC(F)(F)F)cc5)CC4)ccnc3[nH]2)C1 (single isomer, unassigned) [Example 24, [4-[2-(1-Methylpyrrolidin-3-yl)-3H-imidazo[4,5-b]pyridin-7-yl]-1-piperidyl]-[4-(trifluoromethoxy)phenyl]methanone]	
87 nM	83 nM	Nc1cc(OC(F)(F)F)ccc1C(=O)N1CCC(c2ccnc3[nH]c(C4CNCCO4)nc23)CC1 (single isomer, unassigned) [Example 96, [2-amino-4-(trifluoromethoxy)phenyl]-[4-[2-[morpholin-2-yl]-3H-imidazo[4,5-b]pyridin-7-yl]-1-piperidyl]methanone]	
98 nM	102 nM	Nc1cc(OC(F)(F)F)ccc1C(=O)N1CCC(c2ccnc3[nH]c(C4COCCO4)nc23)CC1 (single isomer, unassigned) [Example 144, [2-amino-4-(trifluoromethoxy)phenyl]-[4-[2-[1,4-dioxan-2-yl]-3H-imidazo[4,5-b]pyridin-7-yl]-1-piperidyl]methanone]	
203 nM	207 nM	CC12CC(N)(C1)C(c1nc3c(C4CCN(C(=O)c5ccc(OC(F)(F)F)cc5N)CC4)ccnc3[nH]1)O2 (single isomer, unassigned) [Example 254, [4-[2-[4-amino-1-methyl-2-oxabicyclo[2.1.1]hexan-3-yl]-3H-imidazo[4,5-b]pyridin-7-yl]-1-piperidyl]-[2-amino-4-(trifluoromethoxy)phenyl]methanone]	
163 nM	166 nM	O=C(c1ccc(S(F)(F)(F)(F)F)cc1)N1CCC(c2ccnc3[nH]c(C4CCCO4)nc23)CC1 (single isomer, unassigned) [Example 298, [4-(pentafluoro-λ^6-sulfanyl)phenyl]-[4-[2-[tetrahydrofuran-2-yl]-3H-imidazo[4,5-b]pyridin-7-yl]-1-piperidyl]methanone]	
284 nM	273 nM	O=C(c1ccc(S(F)(F)(F)(F)F)cc1)N1CCC(c2ccnc3[nH]c(C4CCOC4)nc23)CC1 (single isomer, unassigned) [Example 301, [4-(pentafluoro-λ^6-sulfanyl)phenyl]-[4-[2-[tetrahydrofuran-3-yl]-3H-imidazo[4,5-b]pyridin-7-yl]-1-piperidyl]methanone]	
99 nM	97 nM	Nc1cc(S(F)(F)(F)(F)F)ccc1C(=O)N1CCC(c2ccnc3[nH]c(C4CCOC4)nc23)CC1 (single isomer, unassigned) [Example 308, [2-amino-4-(pentafluoro-λ^6-sulfanyl)phenyl]-[4-[2-[tetrahydrofuran-3-yl]-3H-imidazo[4,5-b]pyridin-7-yl]-1-piperidyl]methanone]	
104 to 165 nM	684 nM	O=C(c1ccc(S(F)(F)(F)(F)F)cc1)N1CCC(c2c(F)cnc3[nH]c(C4CCOC4)nc23)CC1 (single isomer, unassigned) [Example 400, [4-[6-fluoro-2-[tetrahydrofuran-3-yl]-3H-imidazo[4,5-b]pyridin-7-yl]-1-piperidyl]-[4-(pentafluoro-λ^6-sulfanyl)phenyl]methanone]	
47 nM	47 nM	Nc1cc(OC(F)(F)F)ccc1C(=O)N1CCC(c2ccnc3[nH]c(C4CCN(CC(F)F)CC4)nc23)CC1 [Example 37, [2-Amino-4-(trifluoromethoxy)phenyl]-[4-[2-[1-(2,2-difluoroethyl)-4-piperidyl]-3H-imidazo[4,5-b]pyridin-7-yl]-1-piperidyl]methanone]	
> 10000 nM	262 nM	O=C(c1ccc(C(F)(F)F)c(=O)[nH]1)N1CCC(c2ccnc3[nH]c(C4CCOCC4)nc23)CC1 [Example 53, 6-[4-(2-Tetrahydropyran-4-yl-3H-imidazo[4,5-b]pyridin-7-yl)piperidine-1-carbonyl]-3-(trifluoromethyl)-1H-pyridin-2-one, hydrochloride]	
> 10000 nM	26800 nM	CS(=O)(=O)c1ccc(C(=O)N2CCC(c3ccnc4[nH]c(C5CCOCC5)nc34)CC2)c(N)c1 [Example 84, (2-amino-4-methylsulfonyl-phenyl)-[4-(2-tetrahydropyran-4-yl-3H-imidazo[4,5-b]pyridin-7-yl)-1-piperidyl]methanone]	
> 10000 nM	25200 nM	O=C(C1CC1c1cccc(O)c1)N1CCC(c2ccnc3[nH]c(C4CCOCC4)nc23)CC1 (centres unmarked) [Example 86, [2-(3-hydroxyphenyl)cyclopropyl]-[4-(2-tetrahydropyran-4-yl-3H-imidazo[4,5-b]pyridin-7-yl)-1-piperidyl]methanone]	
6640 nM	6910 nM	Nc1c(C(=O)N2CCC(c3ccnc4[nH]c(C5CCOCC5)nc34)CC2)cnn1-c1ccccc1 [Example 105, (5-amino-1-phenyl-pyrazol-4-yl)-[4-(2-tetrahydropyran-4-yl-3H-imidazo[4,5-b]pyridin-7-yl)-1-piperidyl]methanone]	
> 10000 nM	25700 nM	O=C1Nc2ccccc2OC1CC(=O)N1CCC(c2ccnc3[nH]c(C4CCOCC4)nc23)CC1 (centres unmarked) [Example 106, 2-[2-oxo-2-[4-(2-tetrahydropyran-4-yl-3H-imidazo[4,5-b]pyridin-7-yl)-1-piperidyl]ethyl]-4H-1,4-benzoxazin-3-one]	
> 10000 nM	14900 nM	O=C(c1cnn(Cc2ccccc2Cl)c1)N1CCC(c2ccnc3[nH]c(C4CCOCC4)nc23)CC1 [Example 112, [1-[(2-chlorophenyl)methyl]pyrazol-4-yl]-[4-(2-tetrahydropyran-4-yl-3H-imidazo[4,5-b]pyridin-7-yl)-1-piperidyl]methanone]	
> 10000 nM	16400 nM	Nc1nc2ccccc2nc1C(=O)N1CCC(c2ccnc3[nH]c(C4CCOCC4)nc23)CC1 [Example 116, (3-aminoquinoxalin-2-yl)-[4-(2-tetrahydropyran-4-yl-3H-imidazo[4,5-b]pyridin-7-yl)-1-piperidyl]methanone]	
> 10000 nM	18000 nM	O=C(C1CCN(c2ccccc2Cl)C1)N1CCC(c2ccnc3[nH]c(C4CCOCC4)nc23)CC1 (centres unmarked) [Example 118, [1-(2-chlorophenyl)pyrrolidin-3-yl]-[4-(2-tetrahydropyran-4-yl-3H-imidazo[4,5-b]pyridin-7-yl)-1-piperidyl]methanone]	
> 10000 nM	6600 nM	O=C(c1cn(-c2ccc(F)cc2)cn1)N1CCC(c2ccnc3[nH]c(C4CCOCC4)nc23)CC1 [Example 120, [1-(4-fluorophenyl)imidazol-4-yl]-[4-(2-tetrahydropyran-4-yl-3H-imidazo[4,5-b]pyridin-7-yl)-1-piperidyl]methanone]	
13 nM	13 nM	COC12CC(c3nc4c(C5CCN(C(=O)c6ccc(OC(F)(F)F)cc6N)CC5)ccnc4[nH]3)(C1)C2 [Example 150, [2-amino-4-(trifluoromethoxy)phenyl]-[4-[2-(3-methoxy-1-bicyclo[1.1.1]pentanyl)-3H-imidazo[4,5-b]pyridin-7-yl]-1-piperidyl]methanone]	
37 nM	36 nM	Nc1c(C(=O)N2CCC(c3ccnc4[nH]c(C5CCOCC5)nc34)CC2)ccc(OC(F)(F)F)c1F [Example 189, [2-amino-3-fluoro-4-(trifluoromethoxy)phenyl]-[4-(2-tetrahydropyran-4-yl-3H-imidazo[4,5-b]pyridin-7-yl)-1-piperidyl]methanone]	
> 10000 nM	98 nM	O=C(c1ccc(C(F)(F)F)[nH]c1=O)N1CCC(c2ccnc3[nH]c(C4CCOCC4)nc23)CC1 [Example 264, 3-[4-(2-tetrahydropyran-4-yl-3H-imidazo[4,5-b]pyridin-7-yl)piperidine-1-carbonyl]-6-(trifluoromethyl)-1H-pyridin-2-one]	
97 nM	95 nM	COC12CC(c3nc4c(C5CCN(C(=O)c6ccc(S(F)(F)(F)(F)F)cc6)CC5)ccnc4[nH]3)(C1)C2 [Example 302, [4-[2-(3-methoxy-1-bicyclo[1.1.1]pentanyl)-3H-imidazo[4,5-b]pyridin-7-yl]-1-piperidyl]-[4-(pentafluoro-λ^6-sulfanyl)phenyl]methanone]	
16 to 43 nM	3870 nM	Nc1cc(OC(F)(F)F)ccc1C(=O)N1CCC(c2c(F)cnc3[nH]c(C45CC(C(F)(F)F)(C4)C5)nc23)CC1 [Example 432, [2-amino-4-(trifluoromethoxy)phenyl]-[4-[6-fluoro-2-[3-(trifluoromethyl)-1-bicyclo[1.1.1]pentanyl]-3H-imidazo[4,5-b]pyridin-7-yl]-1-piperidyl]methanone]	
38 to 88 nM	4500 nM	O=C(c1ccc(OC(F)(F)F)cc1)N1CCC(c2c(F)cnc3[nH]c(C45CC(C(F)(F)F)(C4)C5)nc23)CC1 [Example 436, [4-[6-fluoro-2-[3-(trifluoromethyl)-1-bicyclo[1.1.1]pentanyl]-3H-imidazo[4,5-b]pyridin-7-yl]-1-piperidyl]-[4-(trifluoromethoxy)phenyl]methanone]	
	10500 nM	O=C(c1ccc(S(F)(F)(F)(F)F)cc1)N1CCC(c2c(F)cnc3[nH]c([C@H]4CC[C@@](O)(C(F)(F)F)CC4)nc23)CC1 [Example 450, (trans)-[4-[6-fluoro-2-[4-hydroxy-4-(trifluoromethyl)cyclohexyl]-3H-imidazo[4,5-b]pyridin-7-yl]-1-piperidyl]-[4-(pentafluoro-λ^6-sulfanyl)phenyl]methanone]	

SMILES	IC50 (ERK5 [1])	IC50 (ERK5 [2])	IC50 (ERK5 [3])
COC12CC(c3nc4c(C5CCN(C(=O)c6ccc(OC(F)(F)F)cc6)CC5)c(F)cnc4[nH]3)(C1)C2 [Example 426, [4-[6-fluoro-2-(3-methoxy-1-bicyclo[1.1.1]pentanyl)-3H-imidazo[4,5-b]pyridin-7-yl]-1-piperidyl]-[4-(trifluoromethoxy)phenyl]methanone]		69 nM	10 nM
